These results are taken from US8530493B2, “Indolopyridines as Eg5 kinesin modulators” (4SC AG, priority 2006, dated 2013).

In general, EC50 refers to the concentration giving half of the maximal effect.

Common to all, as to format: cell-based
In test [1] the test system is RKO p27 uninduced (proliferating) colon adenocarcinoma cells. Kind of test: Alamar Blue cell viability assay, RKO p27 uninduced (proliferating). The following applies: Homo sapiens, RKOp27, Table B1, anti-proliferative/cytotoxic activity, 72 hours, read-out: −log EC50 RKO p27 uninduced (proliferating) (converted). The method, then: The anti-proliferative/cytotoxic activity of the compounds described herein can be tested on subclones of RKO human colon adenocarcinoma cells (Schmidt et al., Oncogene 19, 2423-2429; 2000) using the Alamar Blue cell viability assay (described in O'Brien et al. Eur J Biochem 267, 5421-5426, 2000). The compounds are dissolved as 10 mM solutions in DMSO and subsequently diluted in semi-logarithmic steps. DMSO dilutions are further diluted 1:100 into Dulbecco's modified Eagle's medium (DMEM) containing 10% fetal calf serum to a final concentration twice as much as the final concentration in the test. RKO subclones are seeded into 96 well flat bottom plates at a density of 4000 cells per well in a volume of 50 μl per well. 24 hours after seeding the 50 μl each of the compound dilutions in DMEM medium are added into each well of the 96 well plate. Each compound dilution is tested as triplicates. Wells containing untreated control cells are filled with 50 μl DMEM medium containing 1% DMSO. The cells are then incubated with the substances for 72 hours at 37° C. in a humidified atmosphere containing 5% carbon dioxide. To determine the viability of the cells, 10 μl of an Alamar Blue solution (Biosource) are added and the fluorescence is measured at an extinction of 544 nm and an emission of 590 nm. For the calculation of the cell viability the emission value from untreated cells is set as 100% viability and the emission rates of treated cells are set in relation to the values of untreated cells. Viabilities are expressed as % values. The Graphpad Prism program is used for the calculation of EC50 values for anti-proliferative/cytotoxic activity out of the obtained dose-response curves.
(§1) To determine the cell cycle specific mode of action, subclones of RKO colon adenocarcinoma cells (RKOp21 or RKOp27 as described by Schmidt et al. in Oncogene 19, 2423-2429; 2000) are seeded into 96 well flat bottom plates at a density of 16000 cells per well in a volume of 50 μl per well in DMEM growth medium with 10% FCS containing 10 μM Ponasterone A. 24 hours after seeding the 50 μl each of the compound dilutions in DMEM medium are added into each well of the 96-well plate. Each compound dilution is tested as triplicates. Wells containing untreated control cells are filled with 50 μl DMEM medium containing 1% DMSO. The cells are then incubated with the substances for 72 hours at 37° C. in a humidified atmosphere containing 5% carbon dioxide. To determine the viability of the cells, 10 μl of an Alamar Blue solution (Biosource) are added and the fluorescence is measured at an extinction of 544 nm and an emission of 590 nm. For the calculation of the cell viability the emission value from untreated cells is set as 100% viability and the emission rates of treated cells are set in relation to the values of untreated cells. Viabilities are expressed as % values. The Graphpad Prism program (GraphPad Software, Inc) is used for the calculation of EC50 values out of the obtained dose-response curves. Viability is compared of proliferating cells grown in the absence of the inducer Ponasterone A, versus viability of cells arrested by the expression of ectopic p27Kip1 induced by Ponasterone A.
(§2) Representative values for anti-proliferation/cytotoxicity [measured as −log EC50 (mol/l)] determined in the aforementioned assays follow from the following tables B1, B2 and B3, in which the numbers of the compounds correspond to the numbers of the examples.
(In general: Alamar Blue is a resazurin reagent that responds to reducing activity.)

Test [2] concerns RKO p27 induced (arrested) colon adenocarcinoma cells. Briefly: Alamar Blue cell viability assay, RKO p27 induced by Ponasterone A (arrested). The note with it: Homo sapiens, RKOp27, Table B1, cells arrested by Ponasterone A-induced p27Kip1, 72 hours, read-out: −log EC50 RKO p27 induced (arrested) (converted). The method, then: as §1, §2
Test [3] concerns RKO p27 or p21 uninduced (proliferating) colon adenocarcinoma cells. Briefly: Alamar Blue cell viability assay, RKO p27 or p21 uninduced (proliferating). The following applies: Homo sapiens, RKOp27, 72 h, Table B2, anti-proliferative/cytotoxic activity, read-out: −log EC50 RKO p27 or p21 uninduced (proliferating) (converted). The procedure, abridged: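 Viability read by Alamar Blue fluorescence (ex 544, em 590 nm), normalised to untreated wells, after 72 h, 37° C, 5% CO2 compound exposure in triplicate. Cells were uninduced (no Ponasterone A), proliferating RKO colon carcinoma p27 or p21 subclones in DMEM with 10% FCS; values are −log EC50 (mol/l).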

Test [4] concerns RKO p27 or p21 induced (arrested) colon adenocarcinoma cells. Kind of test: Alamar Blue cell viability assay, RKO p27 or p21 induced (arrested). The note with it: Homo sapiens, RKOp27, Table B2, cells arrested by Ponasterone A, 72 hours, read-out: −log EC50 RKO p27 or p21 induced (arrested) (converted). The procedure, abridged:
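RKOp21 or RKOp27 subclones in DMEM/10% FCS with 10 μM Ponasterone A to induce p21/p27 arrest, seeded 24 h before compound; triplicate 72 h exposure at 37 °C. Alamar Blue fluorescence (544/590 nm) as % of untreated (1% DMSO) cells; EC50 from dose-response curves, reported as −log EC50 (mol/l).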

Regarding `COc1ccc2[nH]c3c(c2c1)C[C@@]1(C)C(=O)N(CCN2CCC(F)(F)C2)C(=O)N1[C@@H]3c1cccc(O)c1` (racemic) [Example 34, (3aSR,10RS)-2-[2-(3,3-Difluoro-pyrrolidin-1-yl)-ethyl]-10-(3-hydroxy-phenyl)-6-methoxy-3a-methyl-3a,4,9,10-tetrahydro-2,9,10a-triaza-cyclopenta[b]fluorene-1,3-dione], the EC50 in test [1] was 39.8 to 251 nM; in test [2] it was not below 3160 nM.

For `CCN(C)CCN1C(=O)N2[C@H](c3cccc(O)c3)c3[nH]c4ccc(OC)cc4c3C[C@@]2(C)C1=O` (racemic) [Example 52, (3aSR,10RS)-2-[2-(Ethyl-methyl-amino)-ethyl]-10-(3-hydroxy-phenyl)-6-methoxy-3a-methyl-3a,4,9,10-tetrahydro-2,9,10a-triaza-cyclopenta[b]fluorene-1,3-dione], the EC50 in test [1] was not above 39.8 nM; in test [2], not below 3160 nM.

Consider `COc1ccc2[nH]c3c(c2c1)C[C@@]1(C)C(=O)N(CCNC(C)C)C(=O)N1[C@@H]3c1cccc(O)c1` (racemic) [Example 47, (3aSR,10RS)-10-(3-Hydroxy-phenyl)-2-(2-isopropylamino-ethyl)-6-methoxy-3a-methyl-3a,4,9,10-tetrahydro-2,9,10a-triaza-cyclopenta[b]fluorene-1,3-dione], for which the EC50 in test [1] was not above 39.8 nM; in test [2] it was not below 3160 nM.

For the compound `CCNCCCN1C(=O)N2[C@H](c3cccc(O)c3)c3[nH]c4ccc(OC)cc4c3C[C@@]2(C)C1=O` (racemic) [Example 51, (3aSR,10RS)-2-(3-Ethylamino-propyl)-10-(3-hydroxy-phenyl)-6-methoxy-3a-methyl-3a,4,9,10-tetrahydro-2,9,10a-triaza-cyclopenta[b]fluorene-1,3-dione], the EC50 in test [1] was not above 39.8 nM; in test [2] it was not below 3160 nM.

Turning to `CC(C)N(C)CCN1C(=O)N2[C@H](c3cccc(O)c3)c3[nH]c4ccc(Cl)cc4c3C[C@@]2(C)C1=O` (racemic) [Example 39, (3aSR,10RS)-6-Chloro-10-(3-hydroxy-phenyl)-2-[2-(isopropyl-methyl-amino)-ethyl]-3a-methyl-3a,4,9,10-tetrahydro-2,9,10a-triaza-cyclopenta[b]fluorene-1,3-dione], the half-maximal effective concentration (EC50) in test [1] is not above 39.8 nM; in test [2], not below 3160 nM.

In the case of `COc1ccc2[nH]c3c(c2c1)C[C@@]1(C)C(=O)N(CCN2CCN(C(C)=O)CC2)C(=O)N1[C@@H]3c1cccc(O)c1` (racemic) [Example 32, (3aSR,10RS)-2-[2-(4-Acetyl-piperazin-1-yl)-ethyl]-10-(3-hydroxy-phenyl)-6-methoxy-3a-methyl-3a,4,9,10-tetrahydro-2,9,10a-triaza-cyclopenta[b]fluorene-1,3-dione], the concentration for a half-maximal effect (EC50) in test [1] was 39.8 to 251 nM; in test [2] it was not below 3160 nM.

In the case of `CCOc1ccc2[nH]c3c(c2c1)C[C@@]1(C)C(=O)N(CCN2CCC2)C(=O)N1[C@@H]3c1cccc(O)c1` (racemic) [Example 46, (3aSR,10RS)-2-(2-Azetidin-1-yl-ethyl)-6-ethoxy-10-(3-hydroxy-phenyl)-3a-methyl-3a,4,9,10-tetrahydro-2,9,10a-triaza-cyclopenta[b]fluorene-1,3-dione], the EC50 was not above 39.8 nM in test [1] and not below 3160 nM in test [2].

Regarding `C[C@@]12Cc3c([nH]c4ccc(Cl)cc34)[C@@H](c3cccc(O)c3)N1C(=O)N(CCN1CCCC1)C2=O` (racemic) [Example 17, (3aSR,10RS)-6-Chloro-10-(3-hydroxy-phenyl)-3a-methyl-2-(2-pyrrolidin-1-yl-ethyl)-3a,4,9,10-tetrahydro-2,9,10a-triaza-cyclopenta[b]fluorene-1,3-dione], the concentration for a half-maximal effect (EC50) is not above 39.8 nM in test [1] and not below 3160 nM in test [2].

With `CC[C@@]12Cc3c([nH]c4ccc(OC)cc34)[C@@H](c3cccc(O)c3)N1C(=O)N(CCN(C)C)C2=O` (racemic) [Example 18, (3aSR,10RS)-2-(2-Dimethylamino-ethyl)-3a-ethyl-10-(3-hydroxy-phenyl)-6-methoxy-3a,4,9,10-tetrahydro-2,9,10a-triaza-cyclopenta[b]fluorene-1,3-dione], the EC50 is not above 39.8 nM in test [1] and not below 3160 nM in test [2].

In the case of `CN(C)CCN1C(=O)N2[C@H](c3cccc(O)c3)c3[nH]c4ccc(OC(F)F)cc4c3C[C@@]2(C)C1=O` (racemic) [Example 43, (3aSR,10RS)-6-(1,1-Difluoro-methoxy)-2-(2-dimethylamino-ethyl)-10-(3-hydroxy-phenyl)-3a-methyl-3a,4,9,10-tetrahydro-2,9,10a-triaza-cyclopenta[b]fluorene-1,3-dione], the figures for the EC50 in test [1] and in test [2] were not above 39.8 nM and not below 3160 nM, respectively.

Take `COc1ccc2[nH]c3c(c2c1)C[C@@]1(C)C(=O)N(CCN)C(=O)N1[C@@H]3c1cccc(O)c1` (racemic) [Example 25, (3aSR,10RS)-2-(2-Amino-ethyl)-10-(3-hydroxy-phenyl)-6-methoxy-3a-methyl-3a,4,9,10-tetrahydro-2,9,10a-triaza-cyclopenta[b]fluorene-1,3-dione]: the results for the EC50 in test [1] and in test [2] were not above 39.8 nM and not below 3160 nM, respectively.

Turning to `COc1ccc2[nH]c3c(c2c1)C[C@@]1(C)C(=O)N(CCN(C)C)C(=O)N1[C@@H]3c1cccc(O)c1` (single isomer, unassigned) [Example 7b, (−)-2-(2-Dimethylamino-ethyl)-10-(3-hydroxy-phenyl)-6-methoxy-3a-methyl-3a,4,9,10-tetrahydro-2,9,10a-triaza-cyclopenta[b]fluorene-1,3-dione], the EC50 in test [1] was not above 39.8 nM; in test [2], not below 3160 nM.

As to `C=CCN(C)CCN1C(=O)N2[C@H](c3cccc(O)c3)c3[nH]c4ccc(OC)cc4c3C[C@@]2(C)C1=O` (racemic) [Example 80, (3aSR,10RS)-2-[2-(Allyl-methyl-amino)-ethyl]-10-(3-hydroxy-phenyl)-6-methoxy-3a-methyl-3a,4,9,10-tetrahydro-2,9,10a-triaza-cyclopenta[b]fluorene-1,3-dione], the 50% effective concentration (EC50) was not above 39.8 nM in test [3] and not below 3160 nM in test [4].

As for `CCN(C)CCCN1C(=O)N2[C@H](c3cccc(O)c3)c3[nH]c4ccc(Cl)cc4c3C[C@@]2(C)C1=O` (racemic) [Example 140, (3aSR,10RS)-6-Chloro-2-[3-(ethyl-methyl-amino)-propyl]-10-(3-hydroxy-phenyl)-3a-methyl-3a,4,9,10-tetrahydro-2,9,10a-triaza-cyclopenta[b]fluorene-1,3-dione], the 50% effective concentration (EC50) in test [3] was not above 39.8 nM; in test [4], not below 3160 nM.

For the compound `CC(C)(C)NCCN1C(=O)N2[C@H](c3cccc(O)c3)c3[nH]c4ccc(Cl)cc4c3C[C@@]2(C)C1=O` (racemic) [Example 97, (3aSR,10RS)-2-(2-tert-Butylamino-ethyl)-6-chloro-10-(3-hydroxy-phenyl)-3a-methyl-3a,4,9,10-tetrahydro-2,9,10a-triaza-cyclopenta[b]fluorene-1,3-dione], the EC50 in test [3] was not above 39.8 nM; in test [4], not below 3160 nM.
